Data published in patent US10227331B2 (priority 2015, dated 2019).
Read-outs that look alike come from different tables or passages of the source.

Columns and labels:
IMP-1 = IMP-1 (Serratia marcescens, UniProt P52699); experiment: biochemical; type: biochemical
How it was run: (§1)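 Test compound, enzyme and the FRET cephalosporin substrate CCF2-FA are incubated together for 2 hours at 25° C. Cleavage is followed by fluorescence, and IC50 values are derived from semi-logarithmic inhibition curves fitted with a 4-parameter model.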

NDM-1 = NDM-1 (Klebsiella pneumoniae, UniProt C7C422); experiment: biochemical; type: biochemical; settings: CCF2-FA substrate, 2 hours at 25° C; read-out: NDM-1 IC50
NDM-1, sequence (C7C422 whole entry, looked up, species assumed): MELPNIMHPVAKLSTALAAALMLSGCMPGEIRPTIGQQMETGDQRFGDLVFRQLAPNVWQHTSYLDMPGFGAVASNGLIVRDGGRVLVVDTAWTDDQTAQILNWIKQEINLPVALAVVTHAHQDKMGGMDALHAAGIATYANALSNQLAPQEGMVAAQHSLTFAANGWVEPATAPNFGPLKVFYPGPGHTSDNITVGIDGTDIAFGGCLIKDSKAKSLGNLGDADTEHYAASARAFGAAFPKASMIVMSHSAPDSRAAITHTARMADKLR
How it was run: as §1

[1] = system: Klebsiella pneumoniae expressing VIM-1 (IHMA599644); type: cell-based; settings: with imipenem 1 μg/ml; 95% inhibition of bacterial growth
How it was run: (§2)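 Clinical strains grown overnight on blood agar, then diluted 1:100 in 1.1× CAMHB and exposed to test compound with imipenem at 1 μg/ml. Incubation was 22–24 h at 35° C; growth was read by absorbance to find the compound concentration restoring imipenem susceptibility.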

[2] = system: Serratia marcescens expressing IMP-1 (CL5741); type: cell-based; settings: with imipenem 1 μg/ml; 95% inhibition of bacterial growth
How it was run: as §2

[3] = system: Escherichia coli expressing NDM-1 (CLB30005, CLB30016); type: cell-based; settings: with imipenem 1 μg/ml; 95% inhibition of bacterial growth
How it was run: as §2

[4] = system: P. aeruginosa expressing IMP-1, efflux+ (MB9798); type: cell-based, Pseudomonas aeruginosa; settings: for P. aeruginosa expressing IMP-1, efflux+ (MB9798) MITC95: imipenem at 2 μg/mL, in the presence of a class A, C, D serine β-lactamase inhibitor closely related to relebactam; for Efflux ratio: ratio MITC95 PA_9798/MITC95 PA_9799
Text: (§3) The strain background is Pseudomonas aeruginosa PAO1.

[5] = system: P. aeruginosa expressing IMP-1, efflux− (MB9799); experiment: Efflux: concentration of MBL inhibitor which restores susceptibility to imipenem; type: cell-based, Pseudomonas aeruginosa; settings: imipenem at 2 μg/mL, in the presence of a class A, C, D serine β-lactamase inhibitor closely related to relebactam
Text: as §3

VIM-1 = VIM-1 (Pseudomonas aeruginosa (strain ATCC 15692 / DSM 22644 / CIP 104116 / JCM 14847 / LMG 12228 / 1C / PRS 101 / PAO1), UniProt A0A0F7KYQ8); experiment: biochemical; settings: CCF2-FA substrate, 2 hours at 25° C
How it was run: as §1

[6] = CCF2-FA substrate, 2 hours at 25° C, read-out: IMP-1 IC50

IMP-1, sequence (P52699 whole entry, looked up, species assumed): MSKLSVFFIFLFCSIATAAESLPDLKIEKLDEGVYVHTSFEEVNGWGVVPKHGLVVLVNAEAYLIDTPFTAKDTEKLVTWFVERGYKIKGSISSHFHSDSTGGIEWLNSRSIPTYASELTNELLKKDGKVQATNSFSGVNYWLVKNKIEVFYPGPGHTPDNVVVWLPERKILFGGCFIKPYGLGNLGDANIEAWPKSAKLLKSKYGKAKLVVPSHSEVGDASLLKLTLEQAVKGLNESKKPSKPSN

NCCS(=O)(=O)c1ccc(-c2ccc(C(F)(F)F)c3sc(N)nc23)c(-c2nn[nH]n2)c1S(N)(=O)=O [Example 72, 3-(2-amino-7-(trifluoromethyl)benzo[d]thiazol-4-yl)-6-(2-aminoethylsulfonyl)-2-(2H-tetrazol-5-yl)benzenesulfonamide]
IC50 (IMP-1; [6]): 0.322 nM
IC50 (NDM-1): 0.153 nM
Klebsiella pneumoniae expressing VIM-1 (IHMA599644) MITC95 [1]: 1.563 µM
Serratia marcescens expressing IMP-1 (CL5741) MITC95 [2]: 1.563 µM
Escherichia coli expressing NDM-1 (CLB30016) MITC95 [3]: 0.7813 µM
P. aeruginosa expressing IMP-1, efflux+ (MB9798) MITC95 [4]: 3.125 µM
Efflux ratio [4]: 4.00
P. aeruginosa expressing IMP-1, efflux− (MB9799) MITC95 [5]: 0.7813 µM
IC50 (VIM-1): 0.286 nM

NCCS(=O)(=O)c1ccc(-c2cccc3cc(N)ncc23)c(-c2nn[nH]n2)c1S(N)(=O)=O [Example 73, 6-(2-aminoethylsulfonyl)-3-(3-aminoisoquinolin-8-yl)-2-(2H-tetrazol-5-yl)benzenesulfonamide]
IC50 (IMP-1; [6]): 0.214 nM
IC50 (NDM-1): 0.109 nM
Klebsiella pneumoniae expressing VIM-1 (IHMA599644) MITC95 [1]: 3.125 µM
Serratia marcescens expressing IMP-1 (CL5741) MITC95 [2]: 3.125 µM
Escherichia coli expressing NDM-1 (CLB30016) MITC95 [3]: 0.7813 µM
P. aeruginosa expressing IMP-1, efflux+ (MB9798) MITC95 [4]: 1.563 µM
Efflux ratio [4]: 1.00
P. aeruginosa expressing IMP-1, efflux− (MB9799) MITC95 [5]: 1.563 µM
IC50 (VIM-1): 0.241 nM

NCCS(=O)(=O)c1ccc(-c2cccc3nc(N)oc23)c(-c2nn[nH]n2)c1S(N)(=O)=O [Example 74, 3-(2-aminobenzo[d]oxazol-7-yl)-6-(2-aminoethylsulfonyl)-2-(2H-tetrazol-5-yl)benzenesulfonamide]
IC50 (IMP-1): 0.989 nM
IC50 (NDM-1): 0.096 nM
Klebsiella pneumoniae expressing VIM-1 (IHMA599644) MITC95 [1]: 3.125 µM
Serratia marcescens expressing IMP-1 (CL5741) MITC95 [2]: 1.563 µM
Escherichia coli expressing NDM-1 (CLB30016) MITC95 [3]: 0.7813 µM
P. aeruginosa expressing IMP-1, efflux+ (MB9798) MITC95 [4]: 3.125 µM
Efflux ratio [4]: 4.00
P. aeruginosa expressing IMP-1, efflux− (MB9799) MITC95 [5]: 0.7813 µM
IC50 (VIM-1): 0.172 nM

NCCS(=O)(=O)c1ccc(-c2ccc3nc(N)oc3c2)c(-c2nn[nH]n2)c1S(N)(=O)=O [Example 75, 3-(2-aminobenzo[d]oxazol-6-yl)-6-(2-aminoethylsulfonyl)-2-(2H-tetrazol-5-yl)benzenesulfonamide]
IC50 (IMP-1; [6]): 0.433 nM
IC50 (NDM-1): 0.5 nM
Klebsiella pneumoniae expressing VIM-1 (IHMA599644) MITC95 [1]: 1.563 µM
Serratia marcescens expressing IMP-1 (CL5741) MITC95 [2]: 1.563 µM
Escherichia coli expressing NDM-1 (CLB30016) MITC95 [3]: 1.563 µM
P. aeruginosa expressing IMP-1, efflux+ (MB9798) MITC95 [4]: 6.25 µM
Efflux ratio [4]: 8.00
P. aeruginosa expressing IMP-1, efflux− (MB9799) MITC95 [5]: 0.7813 µM
IC50 (VIM-1): 0.283 nM

NCCS(=O)(=O)c1ccc(-c2cccc3oc(N)nc23)c(-c2nn[nH]n2)c1S(N)(=O)=O [Example 76, 3-(2-aminobenzo[d]oxazol-4-yl)-6-(2-aminoethylsulfonyl)-2-(2H-tetrazol-5-yl)benzenesulfonamide]
IC50 (IMP-1): 0.258 nM
IC50 (NDM-1): 0.148 nM
Klebsiella pneumoniae expressing VIM-1 (IHMA599644) MITC95 [1]: 1.563 µM
Serratia marcescens expressing IMP-1 (CL5741) MITC95 [2]: 0.7813 µM
Escherichia coli expressing NDM-1 (CLB30016) MITC95 [3]: 0.7813 µM
P. aeruginosa expressing IMP-1, efflux+ (MB9798) MITC95 [4]: 0.7813 µM
Efflux ratio [4]: 1.00
P. aeruginosa expressing IMP-1, efflux− (MB9799) MITC95 [5]: 0.7813 µM
IC50 (VIM-1): 0.24 nM

NCCS(=O)(=O)c1ccc(-c2ccc3oc(N)nc3c2)c(-c2nn[nH]n2)c1S(N)(=O)=O [Example 77, 3-(2-aminobenzo[d]oxazol-5-yl)-6-(2-aminoethylsulfonyl)-2-(2H-tetrazol-5-yl)benzenesulfonamide]
IC50 (IMP-1; [6]): 1.13 nM
IC50 (NDM-1): 1.05 nM
Klebsiella pneumoniae expressing VIM-1 (IHMA599644) MITC95 [1]: 1.563 µM
Serratia marcescens expressing IMP-1 (CL5741) MITC95 [2]: 1.563 µM
Escherichia coli expressing NDM-1 (CLB30016) MITC95 [3]: 0.7813 µM
P. aeruginosa expressing IMP-1, efflux+ (MB9798) MITC95 [4]: 6.25 µM
Efflux ratio [4]: 8.00
P. aeruginosa expressing IMP-1, efflux− (MB9799) MITC95 [5]: 0.7813 µM
IC50 (VIM-1): 0.385 nM
